Source: US20030021810A1 (priority 2001, published 2003)

What was measured:
Assay type in all cases: cell-based
glioma cells [1] = test: in situ zymography of cell surface gelatinolytic activity; conditions: 50 μM, 30 minutes at 37° C.
Protocol: FITC-labeled DQ gelatin which is intramolecularly quenched (Molecular Probes, Eugene, Oreg.) was used as a substrate for degradation by gelatinases as reported earlier (Oh et al., 1999). Proteolysis by gelatinases yields cleaved FITC-gelatin peptides and the localization of this fluorescence indicates the sites of net gelatinolytic activity. Briefly, glioma cells were plated on 12 mm coverslips. […] Untreated cells served as negative control for this experiment. Cells were then washed with PBS and then incubated with zymography reaction buffer (0.05 M Tris-HCl, 0.15 M NaCl, 5 mM CaCl2 and 0.2 mM NaN3, pH 7.6- the high concentration of azide will prevent the gelatin from phagocytosing and thus allow cell surface gelatinolytic activity to occur) containing 100 μg/ml DQ gelatin at 37° C. overnight. At the end of the incubation period, without fixation or further washes, gelatinolytic activity of the MMP-s was localized and photographed by fluorescence microscopy and the images were acquired by Spot digital camera.

glioma cells [2] = test: release of mature MMP-2 into conditioned media (Western blot, gelatinase activity assay); conditions: 50 μM
Protocol: For these experiments, glioma cells were plated in 96 well (5000 cells/well) or 24 well plates (2.5×10^4/well) in serum containing medium (SCM). After overnight incubation, cell cultures were washed and incubated with serum free medium (SFM) for 24 hrs. Cells were then treated with His-Cltx at concentrations ranging from 30 nM to 3000 nM for 10 min or 30 min at 37° C. Cells were washed and replenished with serum free medium and at post-incubation periods of 10 min, 30 min and 24 hrs, conditioned media was collected from all samples and analyzed for matrix-metalloproteinase-2 activity by gelatinase activity assay as well as Western blots analysis for detection of matrix-metalloproteinase-2 protein. Cells treated with irrelevant His-protein were used as a negative control (untreated cells). […] Conditioned media from 10 wells were pooled for gelatinase activity assay as well as western blot analysis and data shown herein represents an average of three experiments.

glioma cells [3] = test: matrigel invasion assay
Description: Matrigel matrix is a reconstituted basement membrane isolated from Englebreth-Holm-Swarm (EHS) mouse sarcoma, a tumor rich in extracellular matrix proteins. Matrigel-invasion chamber consisted of falcon cell culture inserts of 8 μm pore-size with a uniform layer of matrigel matrix that occludes the membrane pores. […] Cells which remained in the upper chamber were scrubbed off the inserts and the invaded cells were fixed and stained with crystal violet.

c1cnc2c(c1)ccc1cccnc12 [1-10 phenanthroline]
inhibition of cell surface gelatinolytic activity versus 300 nM chlorotoxin (glioma cells [1]): comparable
release of MMP-2 into the medium (glioma cells [2]): blocked the release
inhibition of invasion compared with chlorotoxin (glioma cells [3]; glioma cells): essentially identical inhibition
change of inhibition of glioma invasion (glioma cells [3]; treatment with Filipin): only minimally affected
